The data set is described as follows: from Nakagawa, S.; Okajima, N.; Kitahaba, T.; Nishimura, K.; Fujita, T.; Nakajima, M. (1982). Quantitative structure-activity studies of substituted benzylchrysanthemates. I. Correlation between ….
`C=CCC1=C(C)[C@H](OC(=O)C2C(C=C(C)C)C2(C)C)CC1=O` (stereo partly drawn): the log partition coefficient (logP) came to 4.78.
Then `CC(C)=C[C@@H]1[C@@H](C(=O)OCc2ccc(C#N)cc2)C1(C)C`, with 4.91.
`COC(=O)C1C(C=C(Cl)Cl)C1(C)C` (stereo not drawn) had a log partition coefficient (logP) of 3.63.
With `CC(=O)OCN1C(=O)C2=C(CCCC2)C1=O`, the lipophilicity (logP) worked out at 1.15.
As to `COC(=O)[C@@H]1[C@@H](C=C(C)C)C1(C)C`, the logP stood at 3.76.
`CC(C)=C[C@@H]1[C@@H](C(=O)OCc2ccccc2[N+](=O)[O-])C1(C)C` displayed a logP of 5.2.
The compound `CC(=O)OCc1coc(Cc2ccccc2)c1` registered a log partition coefficient (logP) of 3.24.
For the compound `CC(=O)OCc1ccc(C)cc1`, the lipophilicity (logP) worked out at 2.44.
In turn, `CC(=O)OCc1ccc(Cl)cc1` came in with a lipophilicity (logP) of 2.59.
Then `CC(=O)OCc1ccc([N+](=O)[O-])cc1`, with 1.73; and `COC(=O)C1C(C=C2CCSC2=O)C1(C)C` (stereo not drawn), with 2.33; and `CC(C)=CC1C(C(=O)OCc2ccccc2)C1(C)C` (stereo not drawn), with 5.49.
In turn, `COc1cccc(COC(C)=O)c1` came in with a log partition coefficient (logP) of 2.02.

By logP is commonly meant the decadic logarithm of the partition coefficient of the neutral form, usually between octanol and water.

For the origin of these results see the SangsterLogP compilation.
